{
  "source": "ChEMBL document CHEMBL3507680",
  "about": "“University of Dundee, Gates Library screen for HepG2 cell viability”",
  "assay": "Human HepG2 cell viability assay in 384 well format",
  "type": "toxicity, cell-based",
  "parameters": "dose 125 nL, time 70.5 hour; concentration not given beside the values",
  "conditions": "HepG2 cells, read-out: Inhibition",
  "data": [
    {"smiles": "Cc1occc1C(=O)N1C[C@@H]2CCCO[C@@H]2[C@H](N(C)Cc2ccco2)C1", "values": [
      {"measurement": "cytotoxicity at 70.5 h", "value": -0.88, "unit": "%"}
    ]},
    {"smiles": "O=C(c1cocn1)N1CCC[C@]2(C[C@@H](Oc3ncccc3F)CO2)C1", "values": [
      {"measurement": "cytotoxicity at 70.5 h", "value": -5.09, "unit": "%"}
    ]},
    {"smiles": "Cc1c(S(=O)(=O)NCC(C)C)cnn1C", "values": [
      {"measurement": "cytotoxicity at 70.5 h", "value": -14.3, "unit": "%"}
    ]},
    {"smiles": "Cc1c(Cn2cc(Cl)c(N)n2)cnn1C", "values": [
      {"measurement": "cytotoxicity at 70.5 h", "value": -13.5, "unit": "%"}
    ]},
    {"smiles": "CCn1ncc(Cn2cc(Cl)c(N)n2)c1C", "values": [
      {"measurement": "cytotoxicity at 70.5 h", "value": 19.5, "unit": "%"}
    ]},
    {"smiles": "CC(C(=O)O)n1nc(C(F)(F)F)c(Br)c1C1CC1", "note": "(stereo not drawn)", "values": [
      {"measurement": "cytotoxicity at 70.5 h", "value": -14, "unit": "%"}
    ]},
    {"smiles": "O=C(O)C1CCCN1c1nc(C2CC2)cc(C(F)(F)F)n1", "note": "(stereo not drawn)", "values": [
      {"measurement": "cytotoxicity at 70.5 h", "value": 2.63, "unit": "%"}
    ]},
    {"smiles": "O=C(O)C1CCCN1c1nc(-c2ccc(Cl)cc2)cc(C(F)(F)F)n1", "note": "(stereo not drawn)", "values": [
      {"measurement": "cytotoxicity at 70.5 h", "value": -3.11, "unit": "%"}
    ]},
    {"smiles": "COC(=O)c1ccc(OC)c(Cn2cc(N)cn2)c1", "values": [
      {"measurement": "cytotoxicity at 70.5 h", "value": -19.2, "unit": "%"}
    ]},
    {"smiles": "CCn1cc(-c2cc(C(F)(F)F)nn2CCC#N)cn1", "values": [
      {"measurement": "cytotoxicity at 70.5 h", "value": -9.49, "unit": "%"}
    ]},
    {"smiles": "Cn1cc(-c2cc(C(F)(F)F)nn2CCC#N)cn1", "values": [
      {"measurement": "cytotoxicity at 70.5 h", "value": 11.5, "unit": "%"}
    ]},
    {"smiles": "CCCn1nc(C)c2c(C(F)F)cc(=O)n(CC(=O)O)c21", "values": [
      {"measurement": "cytotoxicity at 70.5 h", "value": -8.97, "unit": "%"}
    ]},
    {"smiles": "Cc1nn(CC(=O)O)c2nccc(-c3ccc(F)cc3)c12", "values": [
      {"measurement": "cytotoxicity at 70.5 h", "value": -8.88, "unit": "%"}
    ]},
    {"smiles": "O=C(O)Cn1nc(C2CC2)c2c(-c3ccco3)ccnc21", "values": [
      {"measurement": "cytotoxicity at 70.5 h", "value": 30.2, "unit": "%"}
    ]},
    {"smiles": "Cc1nn(-c2ccccc2)c2c1c(C(F)F)cc(=O)n2CC(=O)O", "values": [
      {"measurement": "cytotoxicity at 70.5 h", "value": -9.31, "unit": "%"}
    ]},
    {"smiles": "O=C(O)c1cc(C2CC2)nc2c(Cl)cnn12", "values": [
      {"measurement": "cytotoxicity at 70.5 h", "value": -7.04, "unit": "%"}
    ]},
    {"smiles": "COC(=O)c1sc(C(F)(F)F)cc1OC", "values": [
      {"measurement": "cytotoxicity at 70.5 h", "value": -12.4, "unit": "%"}
    ]},
    {"smiles": "COC(=O)c1c(Cl)c(C)nc2onc(C)c12", "values": [
      {"measurement": "cytotoxicity at 70.5 h", "value": -9.83, "unit": "%"}
    ]},
    {"smiles": "CCN(Cc1nonc1C)C(=O)c1cnccn1", "values": [
      {"measurement": "cytotoxicity at 70.5 h", "value": -8.37, "unit": "%"}
    ]},
    {"smiles": "Cn1nnc(NCc2ccc(-c3ccc(Cl)cc3)o2)n1", "values": [
      {"measurement": "cytotoxicity at 70.5 h", "value": -4.59, "unit": "%"}
    ]},
    {"smiles": "CCCn1nnc(NCc2ccc(-c3ccc(Br)cc3)o2)n1", "values": [
      {"measurement": "cytotoxicity at 70.5 h", "value": -11.9, "unit": "%"}
    ]},
    {"smiles": "CCn1nnc(NCc2cc(Cl)cc(Cl)c2OC)n1", "values": [
      {"measurement": "cytotoxicity at 70.5 h", "value": 18.4, "unit": "%"}
    ]},
    {"smiles": "CCn1nnc(NCc2cc(Br)cc(Br)c2OC)n1", "values": [
      {"measurement": "cytotoxicity at 70.5 h", "value": -18.9, "unit": "%"}
    ]},
    {"smiles": "CC(=O)Nc1ncc(S(=O)(=O)Nc2ccccc2F)s1", "values": [
      {"measurement": "cytotoxicity at 70.5 h", "value": -9.78, "unit": "%"}
    ]},
    {"smiles": "CC(=O)Nc1ncc(S(=O)(=O)Nc2ccc(C)cc2)s1", "values": [
      {"measurement": "cytotoxicity at 70.5 h", "value": -1.08, "unit": "%"}
    ]},
    {"smiles": "COC(=O)c1ccc(NS(=O)(=O)c2cnc(NC(C)=O)s2)cc1", "values": [
      {"measurement": "cytotoxicity at 70.5 h", "value": -12, "unit": "%"}
    ]},
    {"smiles": "Cc1cc(NCCCOC(C)C)c2nncn2n1", "values": [
      {"measurement": "cytotoxicity at 70.5 h", "value": 7.73, "unit": "%"}
    ]},
    {"smiles": "Cc1nn(C)c(C)c1CN1CCNCC1", "values": [
      {"measurement": "cytotoxicity at 70.5 h", "value": -4.45, "unit": "%"}
    ]},
    {"smiles": "Cc1ccc(NC(=O)Nc2c(O)oc3ccccc3c2=O)cc1", "values": [
      {"measurement": "cytotoxicity at 70.5 h", "value": 4.11, "unit": "%"}
    ]},
    {"smiles": "CSc1cccc(NC(=O)Nc2c(O)oc3ccccc3c2=O)c1", "values": [
      {"measurement": "cytotoxicity at 70.5 h", "value": -11.5, "unit": "%"}
    ]},
    {"smiles": "Cc1c2ncn(CC(=O)N(C)C)c(=O)c2nn1C", "values": [
      {"measurement": "cytotoxicity at 70.5 h", "value": -8.37, "unit": "%"}
    ]},
    {"smiles": "O=c1c2cc3c(cc2nnn1Cc1ccccc1Cl)OCCO3", "values": [
      {"measurement": "cytotoxicity at 70.5 h", "value": 12.4, "unit": "%"}
    ]},
    {"smiles": "Cc1nnsc1C(=O)NCCNS(=O)(=O)c1cccs1", "values": [
      {"measurement": "cytotoxicity at 70.5 h", "value": 6.87, "unit": "%"}
    ]},
    {"smiles": "O=C(c1ccc(Cn2cc(Br)cn2)cc1)N1CCCC1", "values": [
      {"measurement": "cytotoxicity at 70.5 h", "value": 30.7, "unit": "%"}
    ]},
    {"smiles": "CCn1cc(CNC(=O)C(C)C)cn1", "values": [
      {"measurement": "cytotoxicity at 70.5 h", "value": 0.0963, "unit": "%"}
    ]},
    {"smiles": "Cc1c(Br)c(C(=O)NC(C)c2ccccc2)nn1C", "note": "(stereo not drawn)", "values": [
      {"measurement": "cytotoxicity at 70.5 h", "value": -13, "unit": "%"}
    ]},
    {"smiles": "COCCCNC(=O)C(C)n1cc(Br)cn1", "note": "(stereo not drawn)", "values": [
      {"measurement": "cytotoxicity at 70.5 h", "value": 16.8, "unit": "%"}
    ]},
    {"smiles": "Cc1nn(C)c2c(=O)n(Cc3ccc(C#N)cc3)nnc12", "values": [
      {"measurement": "cytotoxicity at 70.5 h", "value": -10.1, "unit": "%"}
    ]},
    {"smiles": "Cc1nn(C)c2c(NCCn3cccn3)ncnc12", "values": [
      {"measurement": "cytotoxicity at 70.5 h", "value": 5.55, "unit": "%"}
    ]},
    {"smiles": "Cc1nc(NC2CCCC2)c2c(n1)c(C)nn2C", "values": [
      {"measurement": "cytotoxicity at 70.5 h", "value": -14.9, "unit": "%"}
    ]},
    {"smiles": "Cc1nc(NC2CC(C)(C)NC(C)(C)C2)c2c(n1)c(C)nn2C", "values": [
      {"measurement": "cytotoxicity at 70.5 h", "value": -18.4, "unit": "%"}
    ]},
    {"smiles": "Cc1nc(N2CCN(c3ccccc3)CC2)c2c(n1)c(C)nn2C", "values": [
      {"measurement": "cytotoxicity at 70.5 h", "value": -2.17, "unit": "%"}
    ]},
    {"smiles": "Cc1nc(NCCCn2cccn2)c2c(n1)c(C)nn2C", "values": [
      {"measurement": "cytotoxicity at 70.5 h", "value": -3.99, "unit": "%"}
    ]},
    {"smiles": "CCc1nc(NCc2ccccn2)c2c(n1)c(C)nn2C", "values": [
      {"measurement": "cytotoxicity at 70.5 h", "value": 30.9, "unit": "%"}
    ]},
    {"smiles": "Cc1nn(C)c2c(NCCCn3cccn3)nc(C(C)C)nc12", "values": [
      {"measurement": "cytotoxicity at 70.5 h", "value": 16.2, "unit": "%"}
    ]},
    {"smiles": "O=C(Cc1cccs1)N1C[C@H]2CN(CC3CCCO3)CC[C@H]2C1", "note": "(stereo partly drawn)", "values": [
      {"measurement": "cytotoxicity at 70.5 h", "value": -6.25, "unit": "%"}
    ]},
    {"smiles": "COCCN1C[C@@H]2[C@@H](OC)CCN(Cc3ccsc3)[C@@H]2C1", "values": [
      {"measurement": "cytotoxicity at 70.5 h", "value": -2.68, "unit": "%"}
    ]},
    {"smiles": "CO[C@@H]1CCN(Cc2cccc(C)n2)[C@@H]2CN(Cc3ccncc3)C[C@@H]21", "values": [
      {"measurement": "cytotoxicity at 70.5 h", "value": -1.88, "unit": "%"}
    ]}
  ]
}
